According to US20150104392A1, “COMPOSITIONS, BIOMARKERS AND THEIR USE IN THE TREATMENT OF CANCER” (Aptose Biosciences Inc., priority 2013, published 2015):

Tests used:
KG-1 xenograft = test: KG-1 AML xenograft model; assay type: in vivo, mice; details: 15 mg/kg iv, bid, 2T/wk; single agent
Method: The anti-tumor activity of LOR-253HCl was evaluated in yet another in vivo animal model of human AML. Xenograft model mice for AML cell line KG-1 was generated with the same method as in Examples 9 and 10, and were treated with LOR-253HCl or control according to the following regime.
LOR-253-15 mg/kg-iv, bid, 2T/wk-Day 1

[1] = Pharmacokinetics, serum level after i.v. bolus; assay type: in vivo; details: CD-1 nude mice; i.v. bolus 1, 5 and 15 mg/kg
Method: To study the pharmacokinetic (PK) […], CD-1 nude mice were treated by i.v. bolus injections of LOR-253HCl at 1, 5, and 15 mg/kg. The serum level of LOR-253 was measured.

HL-60 xenograft = test: HL-60 AML xenograft model; assay type: in vivo, athymic nude mice; details: 3 cycles
Method: The human AML cell line HL-60 was implanted subcutaneously into athymic nude mice. Tumor-bearing mice were treated with LOR-253HCl alone or in combination with azacitidine, with azacitidine alone, or with a negative control vehicle. The detailed treatment conditions are as follows. • Group 1: Negative control group. LOR-253HCl control vehicle, 2×/day, 3 cycles of 2 consecutive days, 5 days between cycles, i.v., plus 1% D-mannitol every four days by s.c. injection • Group 2: Azacitidine (in 1% D-mannitol) at 10 mg/kg 1× on days 1, 4, 8, 11, 15 and 18 by subcutaneous (s.c.) injection • Group 3: LOR-253HCl at 15 mg/kg bid for 3 cycles, each cycle is 2 consecutive days of dosing per week with 5 days of non-dosing, i.v., n=9 (2T-5B) • Group 4: LOR-253HCl at 15 mg/kg 2×/day (bid) for 3 cycles, each cycle is 1 day of dosing per week with 6 days of non-dosing, i.v., n=9 (1T-6B) • Group 5: Combination of LOR-253 (2T-5B) and azacitidine. LOR-253HCl at 15 mg/kg bid for 3 cycles, each cycle is 2 consecutive days of dosing per week with 5 days of non-dosing, i.v., n=9 (2T-5B) plus azacitidine at 10 mg/kg 1× every four days by s.c. injection • Group 6: Combination of LOR-253 (1T-6B) and azacitidine. […]
Tumor sizes were measured three times per week.

Kasumi-1 xenograft = test: Kasumi-1 AML xenograft model; assay type: in vivo; details: 30 mg/kg (15 mg/kg twice per day) i.v., two consecutive days per week, four weeks
Method: The anti-tumor activity of LOR-253HCl was evaluated in another in vivo animal model of human AML. The human AML cell line Kasumi-1 was implanted subcutaneously into athymic nude mice. Some tumor-bearing mice were treated with LOR-253HCl at 30 mg/kg (15 mg/kg twice per day) for two consecutive days per week for four weeks (the “LOR-253 treatment group”). LOR-253 was administered by intravenous (i.v.) bolus injection as the hydrochloric salt form (LOR-253-HCl) formulated in 20% Polyethylene Glycol 400, 10% Propylene Glycol, and 10% Solutol HS in 60% water.
The major endpoint was to observe for tumor growth inhibition after treatment with LOR-253HCl and compare the anti-tumor effects of different dosing schedules. Tumor sizes were measured three times per week from day 10 after the tumor cell inoculation. Tumors were measured in three dimensions using calipers and the volume was expressed in millimeters cubed using the formula: V=0.5 a×b×c, where a, b, and c are the length, width, and height of the tumor, respectively. Mean tumor volumes+/−standard error (SE) were calculated from each measurement and then plotted in a standard graph to compare the anti-tumor efficacy of drug treatment to that of control (FIG. 20). Toxicity was assessed by clinical observations and by measurement of mouse body weight in grams twice per week over the course of the study. Mean body weights were calculated from each measurement and then plotted to compare body weight changes in the drug treatment group to that of control (FIG. 21).

THP-1 xenograft = test: THP-1 AML xenograft model; assay type: in vivo, mice; details: Group 2: single agent, i.v. Days 1, 2, 8, 9, 15, 16; IP Days 22-25, 29, 30
Method: The anti-tumor activity of LOR-253HCl, as a single agent and in combination with azacitidine, was evaluated in yet another in vivo animal model of human AML. Xenograft model mice for AML cell line THP-1 was generated with the same method as in Examples 9 and 10, and were treated with LOR-253HCl alone or in combination with azacitidine, with azacitidine alone, or with a negative control vehicle, and tumor sizes were measured as described in Examples 9 and 10. The detailed treatment conditions are shown as follows, and the results are shown in FIG. 26. • Group 1 Control: received i.v. treatments with LOR-253 control vehicle (CV) on Days 1, 2, 8, 9, 15 &16; received subcutaneous (SC) treatments with Azacitidine control vehicle on Days 1, 4, 8, 11, 15, 18, 22, 25, 29 &32; and received intraperitoneal (IP) treatments with LOR-253-CV on Days 22, 23, 24, 25, 29&30. • Group-2-LOR-253: received i.v. treatments on Days 1, 2, 8, 9, 15 &16; received IP treatments on Days 22, 23, 24, 25, 29&30 • Group-3-Azacitidine: received SC treatments on Days 1, 4, 8, 11, 15, 18, 22, 25, 29 &32. • Group-4-Combination: received i.v. treatments with LOR-253 on Days 1, 2, 8, 9, 15 &16; received IP treatments with LOR-253 on Days 22, 23, 24 &25; and received SC-treatment with Azacitidine on Days 1, 4, 8, 11, 15, 18, 22 &25

[2] = test system: advanced or metastatic solid tumours; test: Open-label phase 1 study in patients with advanced or metastatic solid tumours; assay type: in vivo, human
Method: Phase I: This was an open-label, phase 1 study to determine the maximum tolerated dose (MTD) or appropriate target dose if MTD not reached to identify the recommended phase 2 dose of LOR-253HCl in patients with advanced or metastatic solid tumours. In the first set of doses, LOR-253HCl was given in ascending doses until the maximum administered dose or appropriate target dose is reached. In the other set of doses, LOR-253HCl was given in ascending doses starting from 20 mg/m^2 until the maximum administered dose or appropriate target dose is reached. Patient as treated on LOR-253HCl for 2 cycles for the evaluation. • Other Name: No other names are used. • Study Type: Interventional • Study Design: Endpoint Classification: Safety Study • Intervention Model: Single Group Assignment • Masking: Open Label • Primary Purpose: Treatment • Official Title: Open-Label, Phase 1 Study of LOR-253HCl in Patients With Advanced or Metastatic Solid Tumours
• To determine the maximum tolerated dose (MTD) or appropriate target dose if MTD not reached to identify the recommended phase 2 dose of LOR-253HCl in patients with advanced or metastatic solid tumours. [Time Frame: 8 weeks]
• To characterize the safety profile of LOR-253HCl when administered to patients with advanced or metastatic solid tumours. [Time Frame: 8 weeks]
• 1. Male or female 18 years of age or older. • 2. Histologically confirmed diagnosis of solid tumor for which no effective therapy is available or that is unresponsive to conventional therapy. • 3. Meet laboratory parameter requirements at study entry.
• 1. Chemotherapy, radiotherapy, biologic therapy, immunotherapy or any other investigational drugs within 21 days of beginning study treatment with LOR-253HCl. • 2. A hematologic malignancy. • 3. A history of brain or other central nervous system metastases. • 4. Have a presence of a significant infection. • 5. Clinically significant autoimmune disease. • 6. Uncontrolled intercurrent illness. • 7. With iron or copper overload syndromes. • 8. Pregnancy or breast feeding.

Cc1[nH]c2ccc(F)cc2c1-c1nc2c3cccnc3c3ncccc3c2[nH]1 [LOR-253HCl]
tumor growth inhibition (KG-1 xenograft): significant tumor growth inhibition | serum level of LOR-253 [1]: dose related increase | tumor growth inhibition (HL-60 xenograft; Group 3: 15 mg/kg bid i.v., two consecutive days per week (2T-5B)): inhibited growth of HL-60 tumors to approximately the same extent as or slightly more than azacitidine alone | tumor growth inhibition (HL-60 xenograft; Group 4: 15 mg/kg bid i.v., one day per week (1T-6B)): inhibited growth of HL-60 tumors to approximately the same extent as or slightly more than azacitidine alone | body weight (Kasumi-1 xenograft): did not show body weight loss | overt signs of toxicity (Kasumi-1 xenograft): did not show other overt signs of toxicity | tumor growth inhibition vs vehicle control (Kasumi-1 xenograft; p=0.028 Student's t-test): statistically significantly increased inhibitory effect | tumor growth inhibition (THP-1 xenograft): inhibited growth of THP-1 tumors to about the same extent as or slightly more than azacitidine alone | Most common AE and SAE ([2]; N=27 patients, 7 dose levels): Fatigue and 1 case of reversible hypophosphatemia | Safety profile ([2]; N=27 patients, 7 dose levels): Excellent Safety Profile | tumor response in individual patient (FIG. 12) ([2]; patient with NSCLC (poorly differentiated adenocarcinoma), extensive metastases, refractory): Tumor shrinkage | RECIST partial response ([2]; patients with advanced solid tumors): No RECIST PR | Stable Disease, evaluable patients ([2]; patients with advanced solid tumors, dose-escalating, 7 dose levels): 41%
